Measured values: patent publication US8865623B2, “Herbicidally active cyclic diones and derivatives thereof, processes for their preparation, compositions, and method of controlling weeds” (Syngenta Limited, priority 2009, dated 2014)

What was measured:
Type in all cases: in vivo
[1] = test system: Alopecurus myosuroides (ALOMY); assay: Pre-emergence herbicidal activity, glasshouse pot test; settings: Alopecurus myosuroides, 312 h, Rate 250 g/ha, evaluated after 13 days, read-out: Pre-emergence activity ALOMY (100=total damage to plant; 0=no damage to plant)
Procedure, shortened: (§1)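 Herbicide damage scored 0–100 at 13 d. Pre-emergence: spray 1 d after sowing; post-emergence: spray after 8 d growth. Formulation acetone/water 50:50, 0.5% Tween 20, aqueous spray.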

Avena fatua (AVEFA) [2] = assay: as above; settings: Avena fatua, 312 h, Rate 250 g/ha, evaluated after 13 days, read-out: Pre-emergence activity AVEFA (100=total damage to plant; 0=no damage to plant)
Procedure, shortened: as §1

[3] = test system: Echinochloa crus-galli (ECHCG); assay: as above; settings: Echinochloa crus-galli, 312 h, Rate 250 g/ha, evaluated after 13 days, read-out: Pre-emergence activity ECHCG (100=total damage to plant; 0=no damage to plant)
Procedure, shortened: as §1

Lolium perenne (LOLPE) [4] = assay: as above; settings: Lolium perenne, 312 h, Rate 250 g/ha, evaluated after 13 days, read-out: Pre-emergence activity LOLPE (100=total damage to plant; 0=no damage to plant)
Procedure, shortened: as §1

[5] = test system: Alopecurus myosuroides (ALOMY); assay: Post-emergence herbicidal activity, glasshouse pot test; settings: Alopecurus myosuroides, 312 h, rate 250 g/ha, evaluated after 13 days, read-out: Post-emergence activity ALOMY (100=total damage to plant; 0=no damage to plant)
Procedure, shortened: as §1

Avena fatua (AVEFA) [6] = assay: as above; settings: Avena fatua, 312 h, rate 250 g/ha, evaluated after 13 days, read-out: Post-emergence activity AVEFA (100=total damage to plant; 0=no damage to plant)
Procedure, shortened: as §1

[7] = test system: Echinochloa crus-galli (ECHCG); assay: as above; settings: Echinochloa crus-galli, 312 h, rate 250 g/ha, evaluated after 13 days, read-out: Post-emergence activity ECHCG (100=total damage to plant; 0=no damage to plant)
Procedure, shortened: as §1

Lolium perenne (LOLPE) [8] = assay: as above; settings: Lolium perenne, 312 h, rate 250 g/ha, evaluated after 13 days, read-out: Post-emergence activity LOLPE (100=total damage to plant; 0=no damage to plant)
Procedure, shortened: as §1

Compound | pest or weed control at 250 g/ha ([1]; pre-emergence) | pest or weed control at 250 g/ha (Avena fatua (AVEFA) [2]; pre-emergence) | pest or weed control at 250 g/ha ([3]; pre-emergence) | pest or weed control at 250 g/ha (Lolium perenne (LOLPE) [4]; pre-emergence) | pest or weed control at 250 g/ha [5] | pest or weed control at 250 g/ha (Avena fatua (AVEFA) [6]) | pest or weed control at 250 g/ha [7] | pest or weed control at 250 g/ha (Lolium perenne (LOLPE) [8]) | pest or weed control at 250 g/ha ([1]; pre-emergence spray) | pest or weed control at 250 g/ha (Avena fatua (AVEFA) [2]; pre-emergence spray) | pest or weed control at 250 g/ha ([3]; pre-emergence spray) | pest or weed control at 250 g/ha (Lolium perenne (LOLPE) [4]; pre-emergence spray) | pest or weed control at 250 g/ha ([5]; glasshouse) | pest or weed control at 250 g/ha (Avena fatua (AVEFA) [6]; glasshouse) | pest or weed control at 250 g/ha ([7]; glasshouse) | pest or weed control at 250 g/ha (Lolium perenne (LOLPE) [8]; glasshouse)
CC1(C)OC(C)(C)C(O)=C(c2cc(Oc3ncc(Cl)cc3C(F)(F)F)ccc2C2CC2)C1=O [Example A-377] | 70% | 60% | 100% | 80% | 100% | 100% | 100% | 100% |  |  |  |  |  |  |  | 
CCc1ccc(Oc2ncc(C(F)(F)F)cc2C(F)(F)F)cc1C1=C(O)[C@H]2CC[C@H](C2)C1=O [Example A-341] |  |  |  |  |  |  |  |  | 100% | 90% | 100% | 100% | 90% | 100% | 100% | 100%
CCc1ccc(Oc2ccc(C#N)cc2F)cc1C1=C(O)CC2(CCOCC2)CC1=O [Example A-270] |  |  |  |  |  |  |  |  | 90% | 60% | 100% | 90% | 90% | 90% | 100% | 70%
CCc1ccc(Oc2ncc(C(F)(F)F)cc2Cl)cc1C1=C(O)[C@@H]2CC[C@](C)(C1=O)C2(C)C [Example A-317] |  |  |  |  |  |  |  |  | 100% | 100% | 100% | 100% | 100% | 100% | 100% | 100%
CCc1ccc(Oc2c(F)cc(C#N)cc2F)cc1C1=C(O)C(C)(C)OC(C)(C)C1=O [Example A-166] |  |  |  |  |  |  |  |  | 20% | 20% | 40% | 10% | 30% | 20% | 60% | 20%
CCc1ccc(Oc2ncc(C(F)(F)F)cc2Cl)cc1C1=C(O)CC(C)(C)CC1=O [Example A-86] |  |  |  |  |  |  |  |  | 90% | 100% | 100% | 100% | 90% | 100% | 100% | 70%
CCc1ccc(Oc2ncc(Cl)cc2F)cc1C1=C(O)C(C)(C)OC(C)(C)C1=O [Example A-54] |  |  |  |  |  |  |  |  | 100% | 90% | 100% | 100% | 100% | 100% | 100% | 100%
CCc1ccc(Oc2ccc(Br)c(Cl)c2)cc1C1=C(O)[C@H]2CC[C@H](C2)C1=O [Example A-247] |  |  |  |  |  |  |  |  | 90% | 50% | 100% | 90% | 90% | 100% | 100% | 100%
CCc1ccc(Oc2nc3ccc(Cl)cc3[n+]([O-])n2)cc1C1=C(O)C(C)(C)OC(C)(C)C1=O [Example A-236] |  |  |  |  |  |  |  |  | 40% | 20% | 80% | 20% | 100% | 100% | 100% | 30%
CCc1ccc(Oc2ccccc2F)cc1C1=C(O)C(C)(C)OC(C)(C)C1=O [Example A-13] |  |  |  |  |  |  |  |  | 0% | 0% | 0% | 0% | 0% | 0% | 70% | 0%
CCc1ccc(Oc2ncc(Cl)cn2)cc1C1=C(O)CC(C)(C)CC1=O [Example A-288] |  |  |  |  |  |  |  |  | 90% | 60% | 100% | 100% | 100% | 90% | 100% | 90%
CCc1ccc(Oc2ccc(Cl)cc2Cl)cc1C1=C(O)CCC(C)(C)C1=O [Example A-111] |  |  |  |  |  |  |  |  | 10% | 30% | 40% | 40% | 10% | 0% | 40% | 50%
CCc1ccc(Oc2nc3ccccc3nc2C(F)(F)F)cc1C1=C(O)C(C)(C)OC(C)(C)C1=O [Example A-174] |  |  |  |  |  |  |  |  | 50% | 40% | 100% | 70% | 90% | 100% | 100% | 90%
CCc1ccc(Oc2cccc(C(F)(F)F)c2)cc1C1=C(O)C(C)(C)OC(C)(C)C1=O [Example A-185] |  |  |  |  |  |  |  |  | 0% | 0% | 30% | 0% | 20% | 20% | 70% | 30%
CCc1ccc(Oc2cccc(Br)c2)cc1C1=C(O)[C@H]2CC[C@H](C2)C1=O [Example A-245] |  |  |  |  |  |  |  |  | 0% | 0% | 80% | 50% | 0% | 10% | 80% | 20%
CCc1ccc(Oc2ccc(Cl)cn2)cc1C1=C(O)CC(C)(C)CC1=O [Example A-301] |  |  |  |  |  |  |  |  | 70% | 60% | 100% | 100% | 100% | 60% | 100% | 90%
CCc1ccc(Oc2ccc(F)cc2)cc1C1=C(O)CC2(CCOCC2)CC1=O [Example A-35] |  |  |  |  |  |  |  |  | 90% | 70% | 100% | 70% | 80% | 90% | 100% | 80%
CCc1ccc(Oc2ccc(Br)c(Cl)c2)cc1C1=C(O)CC(C)(C)CC1=O [Example A-258] |  |  |  |  |  |  |  |  | 30% | 10% | 70% | 30% | 70% | 70% | 100% | 80%
CCc1ccc(Oc2ccc(Cl)cc2F)cc1C1=C(O)CCC(C)(C)C1=O [Example A-112] |  |  |  |  |  |  |  |  | 40% | 30% | 60% | 90% | 20% | 20% | 70% | 60%
